For this assay, the target named is full length MPS1 (Homo sapiens (Human), UniProt P33981). Put plainly: Measurement of inhibition of MPS1 kinase (Caliper EZ reader mobility-shift enzyme assay). It counts as biochemical. The settings on record: full length MPS1 12.5 nM or 3 nM, H236 peptide 5 μM, ATP 10 μM, 60 min at room temperature. The procedure: Measurement of Inhibition of MPS1 Kinase
The reaction was carried out for 60 min at room temperature and stopped by the addition of buffer (10 μl) containing 20 mM EDTA, 0.05% (v/v) Brij-35, in 0.1M HEPES-buffered saline (Free acid, Sigma, UK). The plate was read on a Caliper EZ reader II (Caliper Life Sciences).
The % inhibition of the compounds is calculated relative to the means of selected control wells.

The structures appear in SMILES notation.

Sequence of full length MPS1 (P33981 whole entry): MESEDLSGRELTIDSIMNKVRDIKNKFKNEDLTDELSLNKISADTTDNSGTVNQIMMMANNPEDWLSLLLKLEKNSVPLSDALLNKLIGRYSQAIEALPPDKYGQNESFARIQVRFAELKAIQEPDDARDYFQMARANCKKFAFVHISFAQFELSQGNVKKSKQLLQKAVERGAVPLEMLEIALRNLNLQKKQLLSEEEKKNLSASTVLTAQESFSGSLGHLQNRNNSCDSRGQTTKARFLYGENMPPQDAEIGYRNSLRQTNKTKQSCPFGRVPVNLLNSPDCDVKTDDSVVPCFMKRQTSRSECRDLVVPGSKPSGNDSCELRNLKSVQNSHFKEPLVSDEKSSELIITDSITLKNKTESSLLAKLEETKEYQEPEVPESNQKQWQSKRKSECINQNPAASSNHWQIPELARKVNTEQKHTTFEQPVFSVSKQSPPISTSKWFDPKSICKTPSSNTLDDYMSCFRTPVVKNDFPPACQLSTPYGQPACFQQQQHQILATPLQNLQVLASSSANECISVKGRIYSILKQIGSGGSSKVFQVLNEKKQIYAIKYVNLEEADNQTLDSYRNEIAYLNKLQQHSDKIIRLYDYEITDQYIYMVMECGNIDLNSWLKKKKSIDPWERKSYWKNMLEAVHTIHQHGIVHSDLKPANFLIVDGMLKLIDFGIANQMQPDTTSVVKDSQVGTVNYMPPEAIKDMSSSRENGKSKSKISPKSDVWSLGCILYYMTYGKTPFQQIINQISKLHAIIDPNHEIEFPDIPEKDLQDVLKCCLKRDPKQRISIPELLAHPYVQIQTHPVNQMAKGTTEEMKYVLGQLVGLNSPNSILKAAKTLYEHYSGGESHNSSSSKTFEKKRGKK

Turning to `COc1cc(C(=O)N2CC(OC)C2)ccc1Nc1cc2c(-c3cnn(C)c3)cccc2cn1` [Example 24], the IC50 was determined as 20 nM.
For the molecule `COc1cc(-c2cnn(C)c2)c(C)cc1Nc1ncc2ccnc(-c3cnn(C)c3)c2n1` [Example 36], the IC50 was determined as 100 nM.

Broadly, the IC50 is the concentration that gives 50% inhibition.
